The text below walks through data of patent US20050197350A1, “Novel quinoline, tetrahydroquinazoline, and pyrimidine derivatives and methods of treatment related to the use thereof” (TAISHO PHARMACEUTICAL CO., LTD., priority 2003, published 2005).

This assay relates to MCH receptors. Kind of assay: MCH receptor activity class (method not given).
The mark [1] stands for this setting: class by percent of control at 10^-7 M or IC50.
The mark [2] stands for this setting: class 1-3 by percent of control at 10^-7 M or IC50.
The mark [3] stands for this setting: MCH receptor, class by percent of control at 10^-7 M or IC50.
[4] abbreviates: MCH receptor activity class 1-3 (percent of control at 10^-7 M or IC50).
The mark [5] stands for this setting: class by percent of control at 10^−7 M or IC50.

For `COc1cc(OC)c(OC)cc1CNC[C@H]1CC[C@@H](Nc2nc3c(c(N(C)C)n2)CCCC3)CC1` [compound 1417], under setting [1], the class is on record as 1 (Class 1: The value of percent of control at 10^−7 M was less than 40% or the value of IC50 was less than 50 nM.).
On the same count and under the same terms, the same measure for `CCCCCC(=O)NC[C@H]1CC[C@@H](Nc2nccc(N(C)C)n2)CC1` [compound 385]: 3 (Class 3 The value of percent of control at 10^−7 M was more than 60% or the value of IC50 was more than 200 nM.); for `CN(C)c1ccnc(N[C@H]2CC[C@@H](NC(=O)c3ccc4ccccc4c3)CC2)n1` [compound 328]: 3 (Class 3 The value of percent of control at 10^−7 M was more than 60% or the value of IC50 was more than 200 nM.).
On to `CN(C)c1nc(N[C@H]2CC[C@@H](NC(=O)c3ccc(F)cc3F)CC2)nc2c1CCCC2` [compound 562], for which the class under setting [2] is listed as 3 (Class 3 The value of percent of control at 10^−7 M was more than 60% or the value of IC50 was more than 200 nM.).
As for `CN(C)c1nc(N[C@H]2CC[C@@H](NCCc3cccc(Cl)c3)CC2)nc2c1CCCC2` [compound 1482], the class under setting [1] was 3 (Class 3 The value of percent of control at 10^−7 M was more than 60% or the value of IC50 was more than 200 nM.).
In the case of `CN(C)c1cc(N[C@H]2CC[C@@H](NC(=O)Cc3ccccc3Br)CC2)nc2ccccc12` [compound 80], the class under setting [3] is 3 (Class 3 The value of percent of control at 10^−7 M was more than 60% or the value of IC50 was more than 200 nM.).
Take `C=CCSc1ncccc1C(=O)N[C@H]1CC[C@@H](Nc2cc(N(C)C)c3ccccc3n2)CC1` [compound 786]: the class under setting [1] is reported as 3 (Class 3 The value of percent of control at 10^−7 M was more than 60% or the value of IC50 was more than 200 nM.).
For `COc1ccc(NC(=O)N[C@H]2CC[C@@H](Nc3nccc(N(C)C)n3)CC2)c(C)c1` [compound 2246], the class under setting [1] is 3 (Class 3 The value of percent of control at 10^−7 M was more than 60% or the value of IC50 was more than 200 nM.).
On the same count and under the same terms, the same measure for `Cc1cc(C)c(CCNC[C@H]2CC[C@@H](Nc3nc4c(c(N(C)C)n3)CCCC4)CC2)c(C)c1` [compound 1501]: 3 (Class 3 The value of percent of control at 10^−7 M was more than 60% or the value of IC50 was more than 200 nM.); for `CCOc1cccc(CN[C@H]2CC[C@@H](Nc3cc(N(C)C)c4ccccc4n3)CC2)c1` [compound 1452]: 3 (Class 3 The value of percent of control at 10^−7 M was more than 60% or the value of IC50 was more than 200 nM.).
Take `CN(C)c1nc(N[C@H]2CC[C@@H](NC(=O)Nc3ccccc3OC(F)(F)F)CC2)nc2c1CCCC2` [compound 1909, N-(cis-4-{[4-(dimethylamino)-5,6,7,8-tetrahydroquinazolin-2-yl]amino}cyclohexyl)-N′-[2-(trifluoromethoxy)phenyl]urea]: the class under setting [3] is listed as 2 (Class 2: The value of percent of control at 10^−7 M was from 40% to 60% or the value of IC′50 was from 50 nM to 200 nM.).
`CN(C)c1cc(N[C@H]2CC[C@@H](NC(=S)Nc3ccc(Cl)cc3C(F)(F)F)CC2)nc2ccccc12` [compound 2294]: the class under setting [4] is listed as 3 (Class 3 The value of percent of control at 10^−7 M was more than 60% or the value of IC50 was more than 200 nM.).
Take `CN(C)c1nc(N[C@H]2CC[C@@H](NC(=O)Nc3ccc(-c4ccccc4)s3)CC2)nc2c1CCCC2` [compound 1919]: the class under setting [3] was 3 (Class 3 The value of percent of control at 10^−7 M was more than 60% or the value of IC50 was more than 200 nM.).
Consider `Cc1cc(Cl)cc(Cl)c1NC(=S)N[C@H]1CC[C@@H](Nc2nccc(N(C)C)n2)CC1` [compound 2346, N-(2,4-dichloro-6-methylphenyl)-N′-(cis-4-{[4-(dimethylamino)pyrimidin-2-yl]amino}cyclohexyl)thiourea], for which the class under setting [4] is reported as 2 (Class 2: The value of percent of control at 10^−7 M was from 40% to 60% or the value of IC′50 was from 50 nM to 200 nM.).
`CCOc1ccc(C(=O)CC(C(=O)NC[C@H]2CC[C@@H](Nc3cc(N(C)C)c4ccccc4n3)CC2)C2C(=O)N(c3ccccc3)N=C2C)cc1` (relative stereo) [compound 807]: under setting [1], the class was 3 (Class 3 The value of percent of control at 10^−7 M was more than 60% or the value of IC50 was more than 200 nM.).
As for `Cc1cc(N(C)C)nc(NC[C@H]2CC[C@@H](NC(=O)c3ccccc3)CC2)n1` [compound 2732, N-[cis-4-({[4-(dimethylamino)-6-methylpyrimidin-2-yl]amino}methyl)cyclohexyl]benzamide], the class under setting [5] is 3 (Class 3 The value of percent of control at 10^−7 M was more than 60% or the value of IC50 was more than 200 nM.).
Regarding `Cc1cnc(N[C@H]2CC[C@@H](NC(=O)c3ccc(C(F)(F)F)c(F)c3)CC2)nc1N(C)C` [compound 2931], the class under setting [5] is on record as 3 (Class 3 The value of percent of control at 10^−7 M was more than 60% or the value of IC50 was more than 200 nM.).
Regarding `CN(C)c1ccnc(N[C@H]2CC[C@@H](NC(=O)Nc3c(F)cc(Br)cc3F)CC2)n1` [compound 2206], the class under setting [1] is reported as 3 (Class 3 The value of percent of control at 10^−7 M was more than 60% or the value of IC50 was more than 200 nM.).
As to `CN(C)c1nc(N[C@H]2CC[C@@H](NC(=S)NC34CC5CC(CC(C5)C3)C4)CC2)nc2c1CCCC2` (relative stereo) [compound 1962], the class under setting [3] is recorded as 3 (Class 3 The value of percent of control at 10^−7 M was more than 60% or the value of IC50 was more than 200 nM.).
For the molecule `Cc1cc(C)c(NC(=S)N[C@H]2CC[C@@H](Nc3nccc(N(C)C)n3)CC2)cc1C` [compound 2334], under setting [4], the class is 3 (Class 3 The value of percent of control at 10^−7 M was more than 60% or the value of IC50 was more than 200 nM.).
`CN(C)c1ccnc(N[C@H]2CC[C@@H](NC(=O)c3ccc(F)cc3Cl)CC2)n1` [compound 279]: under setting [1], the class is recorded as 3 (Class 3 The value of percent of control at 10^−7 M was more than 60% or the value of IC50 was more than 200 nM.).
Regarding `CN(C)c1cc(N[C@H]2CC[C@@H](NC(=S)Nc3c(F)cc(Br)cc3Br)CC2)nc2ccccc12` [compound 2300, N-(2,4-dibromo-6-fluorophenyl)-N′-(cis-4-{[4-(dimethylamino)quinolin-2-yl]amino}cyclohexyl)thiourea], the class under setting [4] is recorded as 2 (Class 2: The value of percent of control at 10^−7 M was from 40% to 60% or the value of IC′50 was from 50 nM to 200 nM.).
As to `Cc1ccc(N(C)C(=O)N[C@H]2CC[C@@H](Nc3ncc(C)c(N(C)C)n3)CC2)cc1` [compound 3024, N′-(cis-4-{[4-(dimethylamino)-5-methylpyrimidin-2-yl]amino}cyclohexyl)-N-methyl-N-(4-methylphenyl)urea], the class under setting [5] was 1 (Class 1: The value of percent of control at 10^−7 M was less than 40% or the value of IC50 was less than 50 nM.).
On to `CCOc1ccc2ccccc2c1C(=O)N[C@H]1CC[C@@H](Nc2nccc(N(C)C)n2)CC1` [compound 347], for which, under setting [1], the class is reported as 3 (Class 3 The value of percent of control at 10^−7 M was more than 60% or the value of IC50 was more than 200 nM.).
For `Cc1cc(NC(=O)N[C@H]2CC[C@@H](Nc3nc4c(c(N(C)C)n3)CCCC4)CC2)c(C(F)(F)F)o1` [compound 1692], for the setting “activity class 1-3: percent of control at 10^-7 M or IC50”, the class was 3 (Class 3 The value of percent of control at 10^−7 M was more than 60% or the value of IC50 was more than 200 nM.).
In the case of `CN(C)c1ccnc(N[C@H]2CC[C@@H](CNCc3ccccc3C#N)CC2)n1` [compound 1268], the class under setting [1] was 3 (Class 3 The value of percent of control at 10^−7 M was more than 60% or the value of IC50 was more than 200 nM.).
For `CN(C)c1nc(N[C@H]2CC[C@@H](NC(=O)c3cc(C(F)(F)F)ccc3F)CC2)nc2c1CCCC2` [compound 501], the class under setting [2] is recorded as 3 (Class 3 The value of percent of control at 10^−7 M was more than 60% or the value of IC50 was more than 200 nM.).
In the case of `CSc1ncccc1C(=O)NC[C@H]1CC[C@@H](Nc2cc(N(C)C)c3ccccc3n2)CC1` [compound 169], the class under setting [3] was 3 (Class 3 The value of percent of control at 10^−7 M was more than 60% or the value of IC50 was more than 200 nM.).
`Cc1c(C(=O)N[C@H]2CC[C@@H](Nc3cc(N(C)C)c4ccccc4n3)CC2)cc(-c2ccccc2)n1CCCN1CCOCC1` [compound 724]: the class under setting [1] was 3 (Class 3 The value of percent of control at 10^−7 M was more than 60% or the value of IC50 was more than 200 nM.).
The same measure, in the same setting: the same measure for `Cc1cc(Br)cc(C)c1NC(=S)N[C@H]1CC[C@@H](Nc2cc(N(C)C)c3ccccc3n2)CC1` [compound 2283, N-(4-bromo-2,6-dimethylphenyl)-N′-(cis-4-{[4-(dimethylamino)quinolin-2-yl]amino}cyclohexyl)thiourea]: 1 (Class 1: The value of percent of control at 10^−7 M was less than 40% or the value of IC50 was less than 50 nM.).
For `CN(C)c1ccnc(N[C@H]2CC[C@@H](NC(=S)Nc3ccc(Br)cc3)CC2)n1` [compound 2257], the class under setting [1] is given as 3 (Class 3 The value of percent of control at 10^−7 M was more than 60% or the value of IC50 was more than 200 nM.).
Take `CC(=O)OC(C(=O)N[C@H]1CC[C@@H](Nc2cc(N(C)C)c3ccccc3n2)CC1)c1ccccc1` (relative stereo) [compound 92]: the class under setting [3] was 3 (Class 3 The value of percent of control at 10^−7 M was more than 60% or the value of IC50 was more than 200 nM.).
Turning to `CN(C)c1ccnc(N[C@H]2CC[C@@H](CNC(=O)Nc3ccccc3Cl)CC2)n1` [compound 2405], under setting [4], the class is reported as 3 (Class 3 The value of percent of control at 10^−7 M was more than 60% or the value of IC50 was more than 200 nM.).
As for `Cc1cnc(NC[C@H]2CC[C@@H](NC(=O)c3ccc(OC(F)(F)F)cc3)CC2)nc1N(C)C` [compound 2722], under setting [5], the class was 3 (Class 3 The value of percent of control at 10^−7 M was more than 60% or the value of IC50 was more than 200 nM.).
For `CN(C)c1cc(N[C@H]2CC[C@@H](NC(=O)c3ccc([N+](=O)[O-])cc3)CC2)nc2ccccc12` [compound 770, N-(cis-4-{[4-(dimethylamino)quinolin-2-yl]amino}cyclohexyl)-4-nitrobenzamide], the class under setting [1] was 1 (Class 1: The value of percent of control at 10^−7 M was less than 40% or the value of IC50 was less than 50 nM.).
